No end group written: not given here.

One assay addresses T1, recombinant ATG4A (Homo sapiens, UniProt Q8WYN0).
T1 sequence (Q8WYN0 1-398): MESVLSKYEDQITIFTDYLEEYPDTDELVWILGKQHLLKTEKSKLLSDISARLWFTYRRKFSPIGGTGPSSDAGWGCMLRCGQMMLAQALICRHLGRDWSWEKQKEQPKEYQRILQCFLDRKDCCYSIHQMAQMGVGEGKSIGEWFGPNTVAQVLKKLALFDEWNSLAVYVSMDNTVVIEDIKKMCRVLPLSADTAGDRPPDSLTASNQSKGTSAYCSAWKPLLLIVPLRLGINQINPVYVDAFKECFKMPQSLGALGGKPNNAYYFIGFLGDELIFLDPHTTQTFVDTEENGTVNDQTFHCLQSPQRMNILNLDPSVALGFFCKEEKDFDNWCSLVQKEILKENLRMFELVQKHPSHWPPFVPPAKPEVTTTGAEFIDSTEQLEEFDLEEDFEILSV
Briefly: ATG4 reporter GBRL2-PLA2 assay with recombinant ATG4A. The assay is classed as biochemical. The settings on record: for inhibitory effect on ATG4A proteolytic activity: recombinant ATG4A 5 nM, 100 nM GBRL2-PLA2, EDTA as positive control. The method, then: (§1) FIGS. 2A to 2C illustrate the inhibitory effects of GBRL2-derived peptides on ATG4 proteolytic activity according to several embodiments of the present invention. FIGS. 2A and 2B illustrate three α-helical peptides (H1, H2 and H3) derived from GBRL2, which were 2-fold serial titrated and mixed with recombinant ATG4A (5 nM) (FIG. 2A) or recombinant ATG4B (0.1 nM) (FIG. 2B) in the presence of 100 nM reporter GBRL2-PLA2, a general substrate for ATG4 members, to evaluate the inhibitory effect of peptides on ATG4A and ATG4B. The IC50 of peptides on ATG4B and ATG4A was analyzed by Prism 5.0. FIG. 2C illustrates the inhibitory activity of EDTA on proteolysis of ATG4 as a positive control in the upper panel. In the lower panel of FIG. 2C, the H2 peptide was further counter assayed with 0.5 nM caspase-3 and 100 μM DEVD-AFC to validate its specificity.
(§2) The reporter assay was modified from a previous report. Briefly, recombinant ATG4A or ATG4B was mixed with 100 nM GBRL2-PLA2 fusion protein in 20 μL PLA2 reaction buffer containing 20 mM Tris-HCl, pH 8.0, 2 mM CaCl2) and 1 mM DTT, and 20 μM 2-(6-(7-nitrobenz-2-oxa-1,3-diazol-4-yl)amino)hexanoyl-1-hexadecanoyl-sn-glycero-3-phosphocholine (NBD-C6-HPC) (Invitrogen, N-3786). Fluorescence intensity was measured within 30-60 minutes using Fluoroskan Ascent FL Reader (Thermo Fisher Scientific) at room temperature with excitation and emission wavelength of 485 nm and 530 nm, respectively. The IC50 of peptides on GBRL2-PLA2 was determined using nonlinear regression fitting of a series of progress curves.

Assay [1] addresses T2, ATG4B (Homo sapiens, UniProt Q9Y4P1).
T2 sequence (Q9Y4P1 1-393): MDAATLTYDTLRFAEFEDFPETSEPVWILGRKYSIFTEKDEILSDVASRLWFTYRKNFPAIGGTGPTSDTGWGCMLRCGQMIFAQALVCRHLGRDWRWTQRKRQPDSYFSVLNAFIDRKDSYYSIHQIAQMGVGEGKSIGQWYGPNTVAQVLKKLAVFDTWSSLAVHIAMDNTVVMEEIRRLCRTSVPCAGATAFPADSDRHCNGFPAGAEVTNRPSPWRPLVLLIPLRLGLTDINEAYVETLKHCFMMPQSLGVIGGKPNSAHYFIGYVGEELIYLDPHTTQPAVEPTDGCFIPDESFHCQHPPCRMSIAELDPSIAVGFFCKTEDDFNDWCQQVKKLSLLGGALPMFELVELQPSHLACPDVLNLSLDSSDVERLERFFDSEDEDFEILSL
Briefly: ATG4 reporter GBRL2-PLA2 assay with recombinant ATG4B. The assay is classed as biochemical. The settings on record: for inhibitory effect on ATG4B proteolytic activity: recombinant ATG4B 0.1 nM, 100 nM GBRL2-PLA2, EDTA as positive control. How it is done:
as §1, §2

For assay [2], the system named is colorectal cancer HCT116 cells. Briefly: cell migration assay, HCT116 cells. The assay is classed as cell-based, human. The settings on record: TAT-GBRL2 at higher dose (20 μM), data not shown. How it is done: (§3) Besides the role of ATG4 in cancer cell survival, ATG4 plays a crucial role in cancer metastasis. Human glioblastoma H4 cells and colorectal cancer HCT116 cells were treated with the peptides for the cell migration assay.

Assay [3] relates to HCT116 cells. In words: propidium iodide (PI) uptake, HCT116 cells. The assay is classed as cell-based, human. The settings on record: data not shown. How it is done: (§4) Since ATG4 might be required for cancer cell viability and metastatic characteristics, such as migration and invasion, the H4 cells and HCT116 cells were treated with peptides to determine the short- and long-term effects of peptide on cancer cells (FIGS. 4A to 4B).

Assay [4] concerns H4 cells. In words: cell viability, H4 cells. The assay is classed as cell-based, human. The settings on record: data not shown. The method, then:
as §4

For assay [5], the system named is H4 cells. In words: propidium iodide (PI) uptake, H4 cells. The assay is classed as cell-based, human. The settings on record: data not shown. How it is done: as §4
The subject of assay [6] is human glioblastoma H4 cells. In words: cell migration assay, H4 cells. The assay is classed as cell-based. The conditions noted are these: TAT-GBRL2 at higher dose (20 μM), data not shown. How it is done: as §3
Assay [7] deals with HCT116 cells. In words: cell viability, HCT116 cells. The assay is classed as cell-based, human. The settings on record: data not shown. How it is done: as §4
Assay [8] has as its system HCT116 cells. Briefly: invasion through Matrigel-coated Transwell filters. The assay is classed as cell-based, human.
Excerpt: FIGS. 5A to 5B illustrate the effects of GBRL2 peptides on cancer cell migration and invasion according to several embodiments of the present invention. FIG. 5A depicts the invasion of HCT116 cells examined with Matrigel-coated Transwell filters in the presence or absence of peptides, and the cell invasion results are quantified with ImageJ software. FIG. 5B depicts the quantified results for invasion expressed as the mean±SEM. *p<0.05; **p<0.01.
as §3

The target in the next assay is T3, caspase-3 (Homo sapiens, UniProt P42574).
T3 sequence (P42574 29-175 limits assumed): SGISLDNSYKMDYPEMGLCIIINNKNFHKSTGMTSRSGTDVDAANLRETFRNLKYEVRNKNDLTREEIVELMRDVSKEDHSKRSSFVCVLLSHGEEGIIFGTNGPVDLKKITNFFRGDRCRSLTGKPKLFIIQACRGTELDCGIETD
T3 sequence (P42574 176-277 limits assumed): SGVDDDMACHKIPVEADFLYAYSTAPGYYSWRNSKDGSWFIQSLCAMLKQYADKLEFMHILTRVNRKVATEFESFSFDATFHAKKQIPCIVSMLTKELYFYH
In words: caspase-3 counter assay with DEVD-AFC. The assay is classed as biochemical. The settings on record: 0.5 nM caspase-3, 100 μM DEVD-AFC. The method, then:
as §1

Assay [9] relates to HCT116 cells. Briefly: clonogenic assay, HCT116 cells. The assay is classed as cell-based, human. The settings on record: peptide 5 μM, long-term treatment. How it is done:
(§5) FIGS. 4A and 4B depict the cytotoxic effects of peptide (5 μM) in H4 cells (FIG. 4A) and HCT116 cells (FIG. 4B) further confirmed by clonogenic assay according to several embodiments of the present invention.
as §4

The target in assay [10] is T2, ATG4B. In words: ATG4B cleavage of chimeric GBRL2 substrate (N-terminal C-myc tag, C-terminal S-tag). The assay is classed as biochemical. The text has this:
FIGS. 3A to 3C illustrate the effects of peptides on cellular ATG4 proteolysis and autophagic flux according to several embodiments of the present invention. FIG. 3A depicts H2 peptides derived from different ATG4 substrates, including MAP1LC3B, MAP1LC3C and GBR, GBRL2 were mixed with chimeric GBRL2 containing N-terminal C-myc tag and C-terminal S-tag. The S-tag GBRL2 in the upper panel and ratios of non-cleaved/cleaved Myc-tag GBRL2 in the lower panel are used to evaluate the inhibitory effects of the H2 peptides. FIG. 3B depicts human glioblastoma H4 cells and colorectal cancer HCT116 cells both treated with 10 μM GBRL2 H2 peptide alone (orange) or TAT peptide alone (red) or GBRL2 H2 peptide conjugated with TAT peptide (green) for 6 hours and analyzed with flow cytometer. […] The luciferase activity is measured to determine the inhibitory effects on cellular ATG4 proteolysis.
Further, H2 helical peptides from different ATG4 substrates were tested for ATG4B activity with GABARAL2 chimeric substrates, which contained N-terminal C-myc tag and C-terminal S-tag (FIG. 3A). Compared to the controls, the remaining S-tag and the ratio of full length C-myc tagged GBRL2/cleaved C-myc tagged GBRL2 levels were quantified to determine the inhibitory effects of peptides on ATG4B proteolytic activity toward GBRL2. […]

The subject of assay [11] is H4 cells. In words: clonogenic assay, H4 cells. The assay is classed as cell-based, human. The conditions noted are these: peptide 5 μM, long-term treatment. The method, then:
as §5, §4

Another assay has as its system cellular ATG4. In words: ATG4 cleavable luciferase assay in cells. The assay is classed as cell-based, human. The conditions noted are these: HCT116 cells expressing ATG4 cleavable luciferase, 6 hours, ATG4B silencer as positive control. The source says:
FIGS. 3A to 3C illustrate the effects of peptides on cellular ATG4 proteolysis and autophagic flux according to several embodiments of the present invention. FIG. 3A depicts H2 peptides derived from different ATG4 substrates, including MAP1LC3B, MAP1LC3C and GBR, GBRL2 were mixed with chimeric GBRL2 containing N-terminal C-myc tag and C-terminal S-tag. The S-tag GBRL2 in the upper panel and ratios of non-cleaved/cleaved Myc-tag GBRL2 in the lower panel are used to evaluate the inhibitory effects of the H2 peptides. FIG. 3B depicts human glioblastoma H4 cells and colorectal cancer HCT116 cells both treated with 10 μM GBRL2 H2 peptide alone (orange) or TAT peptide alone (red) or GBRL2 H2 peptide conjugated with TAT peptide (green) for 6 hours and analyzed with flow cytometer. FIG. 3C depicts the HCT116 cells expressing ATG4 cleavable luciferase treated with GBRL2 H2 peptide for 6 hours. The luciferase activity is measured to determine the inhibitory effects on cellular ATG4 proteolysis.
The plasmid MAP1LC3 wt-Luc or MAP1LC3 G120A-Luc (as a normalization control) was transfected into HEK293T (2000 cells/40 μL) seeded in 384-well white plates for overnight. The cells were treated with ATG4 inhibitors for 8 hours or 16 hours, followed by adding 200 μM D-luciferin (Promega) into each well to monitor the luciferase activity to reflect ATG4 activity in cells. […]

On to “H3: α-helical peptide derived from GBRL2, MGQLYEKE, SEQ ID NO:12 (Ac-MGQLYEKE-NH2)”, for which the “inhibitory effect on ATG4A proteolytic activity” value in the assay with recombinant ATG4A is reported as “showed inhibitory effects”. Besides, the “inhibitory effect on ATG4B proteolytic activity” value with ATG4B [1] is given as “showed inhibitory effects”.
“TAT: Tat penetration domain, HIV-1 TAT basic domain, YGRKKRRQRRR, SEQ ID NO:2; control peptide (Ac-YGRKKRRQRRR-NH2) [reference compound]”: the cell migration result in assay [2] and in assay [6] was “not altered” each time. The PI positive proportion result in the assay with HCT116 cells [3] and with H4 cells [5] was “no effects on PI uptake” each time. For the same substance, the cell viability result in the assay with H4 cells [4] and in the assay on HCT116 cells [7] was “no or little effects” in each case.
Turning to “H1: α-helical peptide derived from GBRL2, LEHRCVESAKIRAK, SEQ ID NO:11 (Ac-LEHRCVESAKIRAK-NH2)”, the “inhibitory effect on ATG4A proteolytic activity” value with recombinant ATG4A is “showed inhibitory effects”. Further, the “inhibitory effect on ATG4B proteolytic activity” value with ATG4B [1] is “showed inhibitory effects”.
With “α-helix 2 peptide derived from GBRL2 (GABARAPL2), VAQFMWIIRKR, SEQ ID NO:1 (VAQFMWIIRKR-NH2; not fully specified (N-terminus))”, the “invaded HCT116 cells” value with HCT116 cells [8] is “significantly decreased the invaded HCT116 cells”. Further, the cell migration result in [2] and in assay [6] was “not altered” each time. In the assay with caspase-3, the “effect on activity of caspase-3” value was “no effects”. Moreover, the PI positive proportion result in the assay with HCT116 cells [3] and in the assay on H4 cells [5] was “slightly increased PI positive cells” throughout. For the same substance, the “IC50 on ATG4A, rank among H1, H2, H3” value with recombinant ATG4A (GBRL2-PLA2 reporter assay) was “lowest IC50”. Also, the “inhibitory effect on ATG4A proteolytic activity” value in the assay with recombinant ATG4A is “showed inhibitory effects”. Also, the colony formation entry in the assay with HCT116 cells [9] and in the assay on H4 cells [11] was “reduced colony formation” throughout. The cell viability entry in the assay on H4 cells [4] and with HCT116 cells [7] was “no or little effects” each time. In addition, in the assay with ATG4B [1] (GBRL2-PLA2 reporter assay), the “IC50 on ATG4B, rank among H1, H2, H3” value was “lowest IC50”. In the assay with ATG4B [1], the “inhibitory effect on ATG4B proteolytic activity” value is given as “showed inhibitory effects”. Moreover, in the assay with ATG4B [10] (compared with H2 peptides of other ATG4 substrates), the “relative strength of inhibition on ATG4B among H2 peptides” value is given as “strongest inhibition”. The “inhibition of ATG4B cleavage activity toward GBRL2” value with ATG4B [10] (remaining S-tag and ratio full length/cleaved C-myc tagged GBRL2) is listed as “inhibited ATG4B cleavage activity in dose dependent manner”. For the same substance, the “cellular luciferase activity (cellular ATG4 proteolysis)” value with cellular ATG4 was “elevated cellular luciferase activity”.

Values taken from US11866516B2, “Isolated peptide, anti-cancer medicinal composition including the same and method of specifically reducing or inhibiting activities of cancer cells using the same” (National Sun Yat-Sen Univesity, priority 2020, dated 2024).
